According to patent US20220409614A1, “TREATING BEHAVIORAL AND PSYCHOLOGICAL SYMPTOMS IN DEMENTIA PATIENTS” (SUVEN LIFE SCIENCES LIMITED, priority 2019, published 2022):
Like-named read-outs stand apart in the source and are kept apart here.

Columns and labels:
[1] = system: patients with AD; settings: citalopram treatment group; cited from earlier work
[2] = cited from earlier work
[3] = short-term treatment; cited from earlier work
[4] = system: subjects with moderate AD; assay: Phase 2 study in moderate AD, ADAS-Cog 11 assessment; type: in vivo, humans; settings: for change from baseline in ADAScog-11 scores vs placebo: 50 mg
Excerpt: The study consisted of a 2 to 4-week screening period, followed by a 26-week double-blind treatment period and a 4-week single-blind placebo washout period. […] Population: The study population included male or female subjects, 50 to 85 years of age, with moderate dementia due to probable AD (MMSE 12-20, both inclusive) based on the National Institute of Neurological and Communicative Diseases and Stroke/Alzheimer's Disease and Related Disorders Association ([…]) criteria, diagnosed at least 1 year prior to the study and receiving stable doses for at least 3 months of donepezil HCl (10 mg qd) and either memantine HCl (10 mg bid) or […]® (28 mg memantine HCl extended-release qd) or the combination therapy, NamzaricTM (28 mg memantine HCl extended-release/10 mg donepezil HCl) qd. […] Throughout the study, all subjects continued to receive donepezil HCl (10 mg qd) and memantine HCl (10 mg bid) or […]® (28 mg memantine HCl extended-release qd) or the combination therapy, NamzaricTM (28 mg memantine HCl extended-release/10 mg donepezil HCl) qd. […] During the washout period, all subjects were received placebo in addition to donepezil HCl and memantine HCl. The Alzheimer's Disease Assessment Scale-Cognitive Subscale (ADAS-Cog) was developed to assess the level of cognitive dysfunction in AD. It is also used for assessing the efficacy of anti-dementia treatments. The ADAScog-11 is a brief measure of cognition, including word recall, commands, constructional praxis, naming objects and fingers, ideational praxis, orientation, word recognition task, remembering test instructions, spoken language ability, word-finding difficulty, and comprehension of spoken language. The test is scored by an administrator who adds up points for the errors in each task for a total score ranging from 0 to 70. The greater the dysfunction, the greater the score. A score of 70 represents the most severe impairment. Data was analyzed using a mixed effects model for repeated measures (MMRM). The model included fixed categorical factors for treatment, week, treatment-by-week interaction, and APO-E status (carrier-one allele, carrier-two alleles, and non-carrier), as well as a continuous covariate of baseline score, the baseline score-by-week interaction, age, and baseline MMSE score. In subgroup analysis, stratification was based on the baseline symptoms and/or symptom emergence.

[5] = system: subjects with moderate AD; assay: Phase 2 study in moderate AD, safety and tolerability assessment; design: species or system humans; settings: in vivo
Protocol: The study consisted of a 2 to 4-week screening period, followed by a 26-week double-blind treatment period and a 4-week single-blind placebo washout period.
Throughout the study, all subjects continued to receive donepezil HCl (10 mg qd) and memantine HCl (10 mg bid) or Namenda XR® (28 mg memantine HCl extended-release qd) or the combination therapy, Namzaric™ (28 mg memantine HCl extended-release/10 mg donepezil HCl) qd.
The safety assessed by monitoring adverse events, physical examinations, vital signs, clinical laboratory tests and electrocardiograms.

[6] = system: subjects with moderate AD; assay: Phase 2 study in moderate AD, NPI-12 (Neuropsychiatric Inventory) assessment; type: in vivo, humans; settings: for effect on NPI domains as measured by the NPI-12 scale: overall statement
Excerpt: The study consisted of a 2 to 4-week screening period, followed by a 26-week double-blind treatment period and a 4-week single-blind placebo washout period. […] Population: The study population included male or female subjects, 50 to 85 years of age, with moderate dementia due to probable AD (MMSE 12-20, both inclusive) based on the National Institute of Neurological and Communicative Diseases and Stroke/Alzheimer's Disease and Related Disorders Association ([…]) criteria, diagnosed at least 1 year prior to the study and receiving stable doses for at least 3 months of donepezil HCl (10 mg qd) and either memantine HCl (10 mg bid) or […]® (28 mg memantine HCl extended-release qd) or the combination therapy, NamzaricTM (28 mg memantine HCl extended-release/10 mg donepezil HCl) qd. […] Throughout the study, all subjects continued to receive donepezil HCl (10 mg qd) and memantine HCl (10 mg bid) or […]® (28 mg memantine HCl extended-release qd) or the combination therapy, NamzaricTM (28 mg memantine HCl extended-release/10 mg donepezil HCl) qd. […] During the washout period, all subjects were received placebo in addition to donepezil HCl and memantine HCl. The NPI is a 12-item structured interview with a caregiver designed to assess behavioral disturbances in patients with dementia. The NPI comprises 10 behavioral (hallucinations, delusions, agitation/aggression, dysphoria/depression, anxiety, irritability, disinhibition, euphoria/elation, apathy and aberrant motor behavior), and neurovegetative items (sleep and night-time behavior change, appetite and eating change). The behavioral domains are assessed in terms of frequency, severity and distress. Each item consists of a screening question and several sub-questions which are rated no (not present) or yes (present). Each item is then rated for frequency (a 4-point scale from 1 [occasionally] to 4 [very frequently]), severity (a 3-point scale from 1 [mild] to 3 [marked]), and caregiver distress (a 6-point scale from 0 [not at all] to 5 [very severely or extremely]). The total score 12 items of the frequency and severity ratings range from 0 to 144 and the total score 12 items of caregiver distress ranges from 0 to 60. The NPI was administered to the subject's caregiver and scored by a qualified, trained rater at baseline and Weeks 4, 13 and 26. Data was analyzed using a mixed effects model for repeated measures (MMRM). The model included fixed categorical factors for treatment, week, treatment-by-week interaction, and APO-E status (carrier-one allele, carrier-two alleles, and non-carrier), as well as a continuous covariate of baseline score, the baseline score-by-week interaction, age, and baseline MMSE score. In subgroup analysis, stratification was based on the baseline symptoms and/or symptom emergence.

[7] = baseline domain score ≥1, mITT, 50 mg, Week 4
[8] = baseline domain score ≥1, mITT, 50 mg, Week 13
[9] = baseline domain score ≥1, mITT, 50 mg, Week 26
[10] = baseline domain score ≥1, mITT, 100 mg, Week 4
[11] = baseline domain score ≥1, mITT, 100 mg, Week 13
[12] = baseline domain score ≥1, mITT, 100 mg, Week 26

CN(C)CCCC1(c2ccc(F)cc2)OCc2cc(C#N)ccc21 (stereo not drawn) [Citalopram]
QT interval [1]: QT interval prolongation
cognition [1]: Worsening of cognition

CC(C)COc1ccc(CNC(=O)N(Cc2ccc(F)cc2)C2CCN(C)CC2)cc1 [Pimavanserin]
effect on NPI-NH psychosis scale ([2]; week 6): statistically significant effect
effect on NPI-NH psychosis scale ([2]; week 12): no effect was evident

O=C1CCc2ccc(OCCCCN3CCN(c4cccc(Cl)c4Cl)CC3)cc2N1 [aripiprazole]
symptomatic benefit in BPSD [3]: modest symptomatic benefit

COc1ccc2c(c1)c(CN1CCN(C)CC1)cn2S(=O)(=O)c1ccccc1Br [masupirdine, 1-[(2-bromophenyl)sulfonyl]-5-methoxy-3-[(4-methyl-1-piperazinyl)methyl]-1H-indole]
change from baseline in ADAScog-11 scores vs placebo ([4]; baseline delusion and/or hallucination score ≥1, mITT, Week 26): statistically significant treatment difference
change from baseline in ADAScog-11 scores vs placebo ([4]; baseline delusion and/or hallucination score ≥1, treatment added as covariate): statistically significant treatment difference
change from baseline in ADAScog-11 scores vs placebo ([4]; baseline delusion and/or hallucination score ≥1, treatment and time added as covariates): statistically significant treatment differences
cognition as assessed by ADAS-Cog 11 scale ([4]; subjects with delusions and hallucinations (baseline symptoms)): significantly improved cognition
change from baseline at Week 26 in ADAS-Cog 11 score (primary efficacy endpoint) ([4]; vs placebo, whole study population): did not show significant treatment advantage in cognition over placebo
safety and tolerability [5]: safe and well tolerated with no significant adverse events
change from baseline in mean NPI-12 scores vs placebo ([6]; 50 mg, Week 4): statistically significant treatment differences
change from baseline in mean agitation/aggression domain scores of NPI-12 vs placebo ([6]; 50 mg, Week 26, no subgroup): statistically significant treatment difference
mean NPI-12 scores ([6]; Week 13, all 3 treatment arms): remained similar to baseline
mean NPI-12 scores ([6]; Week 26, masupirdine dose groups): remained similar to baseline
change from baseline in NPI-12 domain sleep and nighttime behavior vs placebo ([6]; baseline domain score ≥1, 50 mg, Week 26): statistically significant treatment differences
change from baseline in NPI-12 domain sleep and nighttime behavior vs placebo ([6]; baseline domain score ≥1, 100 mg, Week 13): statistically significant treatment difference
change from baseline in NPI-12 domain sleep and nighttime behavior vs placebo ([6]; baseline domain score ≥1, 100 mg, Week 26): statistically significant treatment differences
change from baseline in NPI-12 domain aberrant motor behavior vs placebo [6, 7]: statistically significant treatment differences
change from baseline in NPI-12 domain delusions and/or hallucinations vs placebo [6, 7]: statistically significant treatment difference
change from baseline in NPI-12 domain sleep and nighttime behavior vs placebo [6, 7]: statistically significant treatment difference
change from baseline in mean euphoria/elation scores vs placebo [6, 7]: statistically significant treatment differences
extended composite NPI-12 score domain (agitation/aggression, aberrant motor behavior and sleep and nighttime behavior disorders) vs placebo [6, 7]: statistically significant treatment differences
change from baseline in NPI-12 domain aberrant motor behavior vs placebo [6, 8]: statistically significant treatment difference
change from baseline in NPI-12 domain delusions and/or hallucinations vs placebo [6, 8]: statistically significant treatment difference
change from baseline in mean agitation/aggression scores vs placebo [6, 8]: statistically significant treatment difference
change from baseline in mean euphoria/elation scores vs placebo [6, 8]: statistically significant treatment differences
change from baseline in mean agitation/aggression scores vs placebo [6, 9]: statistically significant treatment difference
change from baseline in mean euphoria/elation scores vs placebo [6, 9]: statistically significant treatment differences
extended composite NPI-12 score domain (agitation/aggression, aberrant motor behavior and sleep and nighttime behavior disorders) vs placebo [6, 9]: statistically significant treatment differences
change from baseline in NPI-12 domain delusions and/or hallucinations vs placebo [6, 10]: statistically significant treatment difference
change from baseline in NPI-12 domain sleep and nighttime behavior vs placebo [6, 10]: statistically significant treatment difference
change from baseline in mean agitation/aggression scores vs placebo [6, 11]: statistically significant treatment difference
extended composite NPI-12 score domain (agitation/aggression, aberrant motor behavior and sleep and nighttime behavior disorders) vs placebo [6, 11]: statistically significant treatment differences
change from baseline in NPI-12 domain disinhibition vs placebo [6, 12]: statistically significant treatment difference
extended composite NPI-12 score domain (agitation/aggression, aberrant motor behavior and sleep and nighttime behavior disorders) vs placebo [6, 12]: statistically significant treatment differences
change from baseline in mean agitation/aggression scores vs placebo ([6]; baseline domain score ≥1, mITT, treatment and time added as covariates): statistically significant treatment differences
extended composite NPI-12 score domain (agitation/aggression, aberrant motor behavior and sleep and nighttime behavior disorders) vs placebo ([6]; baseline domain score ≥1, treatment added as covariate, 50 mg): statistically significant treatment difference
change from baseline in NPI-12 domain sleep and nighttime behavior vs placebo ([6]; baseline domain score ≥1, treatment added as covariate, 50 mg, Week 26): statistically significant treatment difference
change from baseline in NPI-12 domain delusions and/or hallucinations vs placebo ([6]; baseline domain score ≥1, treatment added as covariate, 100 mg): statistically significant treatment difference
change from baseline in NPI-12 domain sleep and nighttime behavior vs placebo ([6]; baseline domain score ≥1, treatment added as covariate, 100 mg, Week 26): statistically significant treatment difference
change from baseline in NPI-12 domain delusions and/or hallucinations vs placebo ([6]; baseline domain score ≥1, treatment and time added as covariates): statistically significant treatment differences
change from baseline in mean agitation/aggression scores vs placebo ([6]; baseline domain score ≥3, mITT, 50 mg, Week 13): statistically significant treatment difference
change from baseline in mean agitation/aggression scores vs placebo ([6]; baseline domain score ≥3, mITT, 50 mg, Week 26): statistically significant treatment difference
change from baseline in mean agitation/aggression scores vs placebo ([6]; baseline domain score ≥3, mITT, 100 mg, Week 13): statistically significant treatment difference
change from baseline in mean agitation/aggression scores vs placebo ([6]; baseline domain score ≥3, treatment added as covariate, 50 mg, Week 26): statistically significant treatment difference
change from baseline in mean agitation/aggression scores vs placebo ([6]; baseline domain score ≥3, treatment and time added as covariates): statistically significant treatment differences
effect on NPI domains as measured by the NPI-12 scale [6]: beneficial effects
effect on NPI domains as measured by the NPI-12 scale ([6]; listed as Masupirdine): significant treatment effect
behavioral and psychological symptoms as assessed by NPI-12 subscale scores ([6]; subgroup analyses): significant improvement

Cc1nc2n(c(=O)c1CCN1CCC(c3noc4cc(F)ccc34)CC1)CCCC2 [risperidone]
symptomatic benefit in BPSD [3]: modest symptomatic benefit
